From US11945822B2, “Pyrazolo-triazine and/or pyrazolo-pxrimidine derivatives as selective inhibitor of cyclin dependent kinase” (QURIENT CO., LTD., priority 2018, dated 2024)
Where two headings read alike, the source gives them in different places.

What was measured:
[1] = molecular target: T1, CDK7/Cyclin H/MNAT1 (Homo sapiens, UniProt P50613); test: Enzymatic assay for CDK7 (FRET based LANCE Ultra kinase assay); type: biochemical
T1 construct: purchased Invitrogen PR6749B
How it was run: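 Inhibition was measured at Km ATP by time-resolved FRET between a Eu anti-phospho antibody and a phosphorylated ULight peptide. The enzyme was the purified CDK7/cyclin complex, and data were curve-fitted.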

[2] = system: H460; test: Cellular H460 viability assay (CellTiter-Glo, 72 hours); type: cell-based; conditions: Homo sapiens, NCI-H460
How it was run: (§1)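 Luminescent ATP read-out (CellTiter-Glo) after 72 h compound exposure at 37 °C/5% CO2; duplicate wells; vehicle control DMSO <0.1% final; seeding density set per cell line.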

[3] = system: MV4-11; test: Cellular MV4-11 viability assay (CellTiter-Glo, 72 hours); type: cell-based; conditions: Homo sapiens
How it was run: as §1

[4] = system: HCT116; test: Cellular HCT116 viability assay (CellTiter-Glo, 72 hours); type: cell-based; conditions: Homo sapiens, HCT-116
How it was run: as §1

[5] = molecular target: T2, CDK2/Cyclin A (Homo sapiens, UniProt P24941); test: Enzymatic assay for CDK2 (FRET based LANCE Ultra kinase assay); type: biochemical
T2 construct: purchased Invitrogen PV6290
How it was run: (§2)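 TR-FRET (LANCE Ultra) kinase assay at ATP Km, ULight-MBP peptide substrate (68 nM), 8-dose 4-fold compound series in DMSO. Enzymes: […]; 60 min at 23° C., stopped with EDTA plus Eu-anti-phospho-MBP antibody, read 665/615 nm after 60 min.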

[6] = molecular target: T3, CDK5/p25 (Homo sapiens, UniProt Q00535); test: Enzymatic assay for CDK5 (FRET based LANCE Ultra kinase assay); type: biochemical
T3 construct: purchased Invitrogen PR8543B
T3 sequence (Q00535 whole entry): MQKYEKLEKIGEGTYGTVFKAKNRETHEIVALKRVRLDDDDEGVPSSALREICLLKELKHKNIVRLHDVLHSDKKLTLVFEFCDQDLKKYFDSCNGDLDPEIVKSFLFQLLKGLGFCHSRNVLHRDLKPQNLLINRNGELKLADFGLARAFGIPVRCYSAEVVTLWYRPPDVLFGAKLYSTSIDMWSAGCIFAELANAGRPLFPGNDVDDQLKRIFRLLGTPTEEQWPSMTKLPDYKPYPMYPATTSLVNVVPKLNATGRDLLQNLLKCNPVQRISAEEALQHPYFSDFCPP
T3 sequence (Q15078 99-307 partner limits assumed): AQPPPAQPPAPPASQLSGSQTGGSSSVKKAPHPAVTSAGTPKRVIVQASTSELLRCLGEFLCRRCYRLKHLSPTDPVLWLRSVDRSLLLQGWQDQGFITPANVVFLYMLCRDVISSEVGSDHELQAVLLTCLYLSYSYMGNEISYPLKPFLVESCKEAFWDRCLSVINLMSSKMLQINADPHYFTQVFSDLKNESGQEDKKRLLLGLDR
How it was run: as §2

[7] = molecular target: T4, CDK1/Cyclin B (Homo sapiens, UniProt P06493); test: Enzymatic assay for CDK1 (FRET based LANCE Ultra kinase assay); type: biochemical
T4 construct: purchased Invitrogen PR4768C
T4 sequence (P06493 whole entry): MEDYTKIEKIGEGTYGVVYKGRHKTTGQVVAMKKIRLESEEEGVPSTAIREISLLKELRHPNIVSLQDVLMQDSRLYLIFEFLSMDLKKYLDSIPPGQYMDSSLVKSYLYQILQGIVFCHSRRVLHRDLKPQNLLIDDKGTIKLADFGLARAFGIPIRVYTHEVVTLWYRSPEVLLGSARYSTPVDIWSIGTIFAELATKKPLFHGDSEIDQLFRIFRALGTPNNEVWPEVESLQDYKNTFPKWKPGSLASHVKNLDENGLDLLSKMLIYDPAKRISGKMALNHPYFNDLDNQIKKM
T4 sequence (P14635 whole entry partner): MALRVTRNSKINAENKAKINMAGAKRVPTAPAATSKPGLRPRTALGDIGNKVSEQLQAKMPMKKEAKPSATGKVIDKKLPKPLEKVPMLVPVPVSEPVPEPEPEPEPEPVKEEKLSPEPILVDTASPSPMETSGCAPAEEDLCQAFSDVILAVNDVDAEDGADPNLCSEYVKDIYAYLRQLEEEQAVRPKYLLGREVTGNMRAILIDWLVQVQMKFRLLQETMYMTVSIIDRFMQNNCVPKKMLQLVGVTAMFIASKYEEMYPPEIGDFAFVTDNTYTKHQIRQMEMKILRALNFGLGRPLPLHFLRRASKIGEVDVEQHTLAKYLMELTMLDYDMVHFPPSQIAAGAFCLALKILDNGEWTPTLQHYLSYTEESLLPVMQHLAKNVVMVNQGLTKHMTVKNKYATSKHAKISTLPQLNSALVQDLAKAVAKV
How it was run: as §2

[8] = read-out: CDK7 enzymatic activity (IC50 range)
[9] = read-out: CDK2 enzymatic activity (IC50 range)
[10] = read-out: CDK5 enzymatic activity (IC50 range)
[11] = read-out: CDK1 enzymatic activity (IC50 range)

T1 sequence (P50613 whole entry): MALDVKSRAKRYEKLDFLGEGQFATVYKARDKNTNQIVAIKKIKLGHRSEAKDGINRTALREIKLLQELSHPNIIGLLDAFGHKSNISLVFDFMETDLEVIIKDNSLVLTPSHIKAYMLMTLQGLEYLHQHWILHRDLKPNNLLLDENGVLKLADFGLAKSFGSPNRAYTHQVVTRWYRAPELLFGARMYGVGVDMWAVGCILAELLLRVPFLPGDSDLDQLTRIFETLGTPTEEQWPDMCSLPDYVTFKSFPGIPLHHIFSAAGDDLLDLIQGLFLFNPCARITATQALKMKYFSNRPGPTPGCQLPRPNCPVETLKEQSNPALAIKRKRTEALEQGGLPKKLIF
T1 sequence (P51946 whole entry partner): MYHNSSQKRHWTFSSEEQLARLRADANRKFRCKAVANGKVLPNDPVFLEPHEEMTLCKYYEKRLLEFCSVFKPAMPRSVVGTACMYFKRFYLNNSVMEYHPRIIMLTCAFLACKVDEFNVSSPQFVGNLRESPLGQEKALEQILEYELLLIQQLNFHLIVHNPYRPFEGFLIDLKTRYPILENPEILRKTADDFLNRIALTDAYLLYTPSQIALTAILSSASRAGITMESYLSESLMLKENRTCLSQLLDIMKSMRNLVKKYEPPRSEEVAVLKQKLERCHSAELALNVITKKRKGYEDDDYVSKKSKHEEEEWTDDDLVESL
T1 sequence (P51948 whole entry partner): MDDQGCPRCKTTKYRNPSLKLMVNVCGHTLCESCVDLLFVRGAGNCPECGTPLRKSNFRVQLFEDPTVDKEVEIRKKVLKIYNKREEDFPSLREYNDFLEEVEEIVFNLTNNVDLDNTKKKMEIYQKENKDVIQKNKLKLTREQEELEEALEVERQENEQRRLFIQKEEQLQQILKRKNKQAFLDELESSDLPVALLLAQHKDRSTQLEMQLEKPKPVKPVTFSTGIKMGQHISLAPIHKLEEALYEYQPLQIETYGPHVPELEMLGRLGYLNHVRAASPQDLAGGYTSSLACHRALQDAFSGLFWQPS

Row | SMILES | CDK1/CDK7: Selectivity of CDK7 inhibition over CDK1 inhibition ([1]; CDK1/CDK7) | CDK2/CDK7: Selectivity of CDK7 inhibition over CDK2 inhibition ([1]; CDK2/CDK7) | CDK5/CDK7: Selectivity of CDK7 inhibition over CDK5 inhibition ([1]; CDK5/CDK7) | IC50 ([1]; read-out: CDK7 enzymatic activity (IC50 activity range)) | IC50 [2] | IC50 [3] | IC50 [4] | IC50 ([5]; read-out: CDK2 enzymatic activity (IC50 activity range)) | IC50 ([6]; read-out: CDK5 enzymatic activity (IC50 activity range)) | IC50 ([7]; read-out: CDK1 enzymatic activity (IC50 activity range)) | CDK1/CDK7: Selectivity of CDK7 inhibition over CDK1 inhibition ([1]; CDK7 over CDK1) | CDK2/CDK7: Selectivity of CDK7 inhibition over CDK2 inhibition ([1]; CDK7 over CDK2) | CDK5/CDK7: Selectivity of CDK7 inhibition over CDK5 inhibition ([1]; CDK7 over CDK5) | IC50 [1, 8] | IC50 [5, 9] | IC50 [6, 10] | IC50 [7, 11]
1 | CC(C)c1cnn2c(NCc3c(Cl)cccc3Cl)nc(N3CCC(N)CC3)nc12 [Compound 257] | A (A=greater than 200 fold) | B (B=less than 200 fold, but greater than 20 fold) | B (B=less than 200 fold, but greater than 20 fold) | < 100 nM | < 1000 nM | < 1000 nM | < 1000 nM | 100 to 1000 nM | 100 to 1000 nM | > 1000 nM | – | – | – | – | – | – | –
2 | CC(C)c1cnn2c(NCc3c(Cl)cccc3-n3ccc(C(=O)NC4CCOCC4)n3)nc(N3CCC(N)CC3)nc12 [Compound 201] | – | – | – | – | < 1000 nM | < 1000 nM | < 1000 nM | – | – | – | A (A=greater than 200 fold) | A (A=greater than 200 fold) | B (B=less than 200 fold, but greater than 20 fold) | < 100 nM | > 1000 nM | 100 to 1000 nM | > 1000 nM
3 | CC(C)c1cnn2c(NCc3ccccc3-c3ccc4ccccc4n3)nc(OCC3CCNCC3)nc12 [Compound 215] | – | – | – | – | < 1000 nM | 1000 to 10000 nM | 1000 to 10000 nM | – | – | – | A (A=greater than 200 fold) | A (A=greater than 200 fold) | A (A=greater than 200 fold) | < 100 nM | > 1000 nM | > 1000 nM | > 1000 nM
4 | CC(C)c1cnn2c(NCc3ccccc3-n3ccc(C(C)(C)O)n3)nc(OCC3CCNCC3)nc12 [Compound 227] | – | – | – | – | < 1000 nM | 1000 to 10000 nM | < 1000 nM | – | – | – | A (A=greater than 200 fold) | A (A=greater than 200 fold) | A (A=greater than 200 fold) | < 100 nM | > 1000 nM | > 1000 nM | > 1000 nM
5 | CC(C)c1cnn2c(NCc3c(Cl)cccc3-n3ccc(CO)n3)nc(N3CCC(N)CC3)nc12 [Compound 207] | – | – | – | – | < 1000 nM | < 1000 nM | < 1000 nM | – | – | – | A (A=greater than 200 fold) | A (A=greater than 200 fold) | B (B=less than 200 fold, but greater than 20 fold) | < 100 nM | > 1000 nM | 100 to 1000 nM | > 1000 nM
6 | CCC(=O)N1CCc2nn(-c3cccc(Cl)c3CNc3cc(O[C@@H]4CCCNC4)nc4c(C(C)C)cnn34)cc2C1 [Compound 211] | – | – | – | – | 1000 to 10000 nM | 1000 to 10000 nM | 1000 to 10000 nM | – | – | – | A (A=greater than 200 fold) | A (A=greater than 200 fold) | A (A=greater than 200 fold) | < 100 nM | > 1000 nM | > 1000 nM | > 1000 nM
7 | CC(C)C(=O)N1CCc2nn(-c3ccccc3CNc3nc(N4CCC(N)CC4)nc4c(C(C)C)cnn34)cc2C1 [Compound 148] | – | – | – | – | < 1000 nM | < 1000 nM | < 1000 nM | – | – | – | A (A=greater than 200 fold) | A (A=greater than 200 fold) | B (B=less than 200 fold, but greater than 20 fold) | < 100 nM | 100 to 1000 nM | < 100 nM | > 1000 nM
